According to patent US7399608B2, “Microbial detection and quantification” (Kimberly-Clark Worldwide, Inc., priority 2003, dated 2008):

What was measured:
[1] = system: bacteria in aged chicken juice; assay: Dried dye coating on ceramic surface with or without TWEEN 80, aged chicken juice; details: 80 mg/10 mL acetonitrile with 200 μL TWEEN 80, dried on ceramic, drop of aged chicken juice
From the text: This solution was then used to coat a ceramic surface (FIG. 11) and allowed to air dry. […] After drying, a drop of aged chicken juice known to have a high bacterial count was placed on the each coating area (11B). […] Furthermore, the addition of TWEEN® surfactant allowed for easy removal of the dye from the surface.

S. aureus [2] = assay: De-colorization of Reichardt's dye-coated paper and stickers by bacteria; set-up: species or system Staphylococcus aureus
Experimental: (§1) This experiment tested the ability of a surface coating of Reichardt's dye to respond to bacterial contamination. […] To this paper was added 100 μL aliquots of 10^7, 10^6, 10^5, and 10^4 CFU/mL E. coli or S. aureus solutions (8B). Water was used as a negative control. […] It was later determined that while both bacteria solutions were indeed at 10^7 CFU/mL concentrations, the actual concentration of the S. aureus solution was 7×10^7 CFU/mL compared to 1×10^7 CFU/mL for the E. coli solution.
A sheet of paper self-adhesive stickers (Avery-Dennison) was also brush-coated with two different concentrations of Reichardt's dye solution (160 mg/10 mL acetonitrile, 80 mg/10 mL acetonitrile). The stickers were applied to the lid and latch mechanism of a Huggies® Wet Wipes box. A gloved hand was used to transfer 10^7 CFU/mL S. aureus to the surface of the stickers. […] The sticker could provide a means for easy and rapid detection of bacterial contamination for a variety of applications.

Polio virus type 1 = details: virus diluted serially in media, 50-microliter aliquots, 3 minutes
[3] = system: bacteria from aged chicken juice; assay: Reichardt's dye indicator spray on surfaces contaminated with aged chicken; details: for false-positive test: chicken broth versus aged chicken juice: 160 mg in 10 ml isopropanol
[4] = system: vaginal fluid samples (lactobacillus, BV bacteria); assay: Reichardt's dye-coated stickers with normal and BV-infected vaginal fluid
Experimental: Considering the high prevalence of vaginal infections of bacterial origin, an experiment was performed to determine the response of Reichardt's dye-coated stickers to healthy (low pH, no bacterial infection), a pH positive/Bacterial Vaginosis (BV) negative (no bacterial infection, but higher than normal pH), and pH positive/BV positive (higher than normal pH and known bacterial infection) vaginal fluid samples. […] A sticker of each concentration was tested with normal, BV positive/pH positive, and BV negative/pH positive vaginal fluid samples.

S. aureus [5] = assay: Solvent choice for Reichardt's dye coatings on SCOTT towels; set-up: species or system Staphylococcus aureus; details: coated SCOTT towel, 100 μl aliquots of S. aureus
Experimental: Solutions of Reichardt's dye in acetonitrile, isopropanol, and xylenes were prepared and the solutions were used to coat SCOTT® kitchen rolls towels and allowed to air-dry (FIGS. 12A and 12D).

E. coli [6] = assay: De-colorization of Reichardt's dye-coated paper by bacteria solutions; set-up: species or system Escherichia coli; details: paper brush-coated with 80 mg/10 mL acetonitrile; 100 μL of 10^7 to 10^4 CFU/mL
Experimental: as §1

Bleach indicator test = type: physicochemical; details: mixture with TMB coated on SCOTT towel
E. coli [7] = assay: Cyclodextrin enhancement: coated towel with bacteria; set-up: species or system Escherichia coli; details: hydroxypropyl-beta-cyclodextrin coated towel
Experimental: A SCOTT® paper towel was first coated with hydroxypropyl-beta-cyclodextrin (from Cerestar International, Hammond, Ind., USA) in solution in water (1 gram in 20 ml) by dipping and air-drying at ambient temperature. When dry the coated paper towel was treated with a solution of Reichardt's dye in isopropanol (1 weight percent) and allowed to air-dry. The dried towel was a purple/blue in color. Here the cyclodextrin hinders the crystallization of the dye allowing a more vivid color of the dye to occur on the paper towel. This coated towel was used in a test with gram-negative bacteria (E. coli) and found to turn colorless in less than 5 seconds when an aliquot of 100 microliters of media containing 10,000 CFU/ml was applied to the towel. […] Thus by hindering the dye from crystallizing, the dye is believed to be present on the substrate as single molecules and therefore the sensitivity of the dye to bacteria levels increases. The inventors believe that by careful use of a coating (e.g. cyclodextrin) on the towel a mono-molecular coating of dye will occur on the surface of the substrate and maximum sensitivity will occur.

Rhinovirus = assay: Virus detection with Reichardt's dye
[8] = system: Herpes Simplex Virus 1 (HSV-1); assay: Virus detection with Reichardt's dye-coated stickers; details: 50-microliter droplet, 3 minutes
[9] = Reichardt's dye indicator with bacterial cell-wall components; details: 160 mg in 10 mL acetonitrile
S. aureus [10] = assay: Titration of substrate-bound microorganism with Reichardt's dye solution; set-up: species or system Staphylococcus aureus
Experimental: On a SCOTT® paper towel was placed 100 μl each of serially diluted S. aureus bacterial suspensions. […] This was repeated on each spot corresponding to where different concentrations of bacteria were placed.

measles = assay: Virus detection with Reichardt's dye-coated stickers
[11] = Effect of acid and strong base on Reichardt's dye de-colorization; type: physicochemical
From the text: This was repeated with another area.

[12] = 160 mg in 10 ml acetonitrile dried on SCOTT towel

[O-]c1c(-c2ccccc2)cc(-[n+]2c(-c3ccccc3)cc(-c3ccccc3)cc2-c2ccccc2)cc1-c1ccccc1 [Reichardt's dye, 2,6-diphenyl-4-(2,4,6-triphenylpyridinio)-phenolate]
de-colorization faster with TWEEN 80 surfactant than without [1]: 20 to 30 s
de-colorization time (S. aureus [2]; paper brush-coated with 80 mg/10 mL acetonitrile, 100 μL of 10^7 to 10^4 CFU/mL): < 1 min
de-colorization of coated stickers (S. aureus [2]; stickers coated with 160 or 80 mg/10 mL acetonitrile, 10^7 CFU/mL transferred by gloved hand): rapidly de-colorized
lowest ten-fold dilution at which stickers changed color (Polio virus type 1): 10^−6
color change of indicator spray on area contacted by aged chicken ([3]; 160 mg in 10 mL acetonitrile, sprayed on ceramic plate): decolorized
color change of indicator spray on contaminated doorknob ([3]; 160 mg in 10 mL isopropanol, plastic doorknob marked with aged chicken juice): de-colorization of the Reichardt's dye from blue to colorless
false-positive test: chicken broth versus aged chicken juice ([3]; ceramic surface): only the side containing the aged chicken juice (and thus bacteria) was de-colorized
false-positive test: chicken broth versus aged chicken juice ([3]; hot plate surface): only the side containing the aged chicken juice (and thus bacteria) was de-colorized
de-colorization after cleaning guided by the spray ([3]; isopropanol spray, ceramic surface cleaned again with 60% ethanol antiseptic): no de-colorization took place
de-colorization by BV negative/pH positive vaginal fluid [4]: only faintly de-colorized
de-colorization by BV positive/pH positive vaginal fluid [4]: next sharpest de-colorization
de-colorization by normal vaginal fluid [4]: sharpest de-colorization
color change of coating made from acetonitrile solution (S. aureus [5]): rapid de-colorization
color change of coatings made from isopropanol and xylenes solutions (S. aureus [5]): No visible color change
de-colorization time (E. coli [6]): < 1 min
response of Reichardt's dye to dilute bleach (Bleach indicator test): de-colorizing
lowest bacteria concentration at which decolorization occurred (E. coli [7]; 1 weight percent dye in isopropanol): 500 CFU/ml
time to turn colorless (E. coli [7]; 1 weight percent dye in isopropanol, 100 microliters of 10,000 CFU/ml): less than 5 seconds
time to decolorize (E. coli [7]; 500 CFU/ml): ≤ 15 s
dye added until the color persisted (Rhinovirus; 80 milligrams/10 milliliters acetonitrile with or without TWEEN 80, 100-microliter drop of undiluted virus on SCOTT towel): approximately 9 drops
lowest ten-fold dilution at which stickers changed color (Rhinovirus; virus diluted serially in saline, 50-microliter aliquots, 3 minutes): 10^−6
de-colorization of sticker by undiluted virus [8]: stronger de-colorization of the sticker than that observed for Rhinovirus and Polio virus
de-colorization by the other cell-wall compounds (LPS, detoxified LPS, lipoteichoic acid) [9]: eventual de-colorization
de-colorization by muramic acid ([9]; both experimental set-ups): near instantaneous de-colorization
Amount of Dye Required for Persistent Color (S. aureus [10]; 160 mg in 10 ml acetonitrile, 10 μl aliquots, 100 μl of 10^7 CFU/ml on towel): 90 µL
de-colorization time of dye drops (S. aureus [10]; 10 μl drops of 40 mg/10 ml acetonitrile on 100 μl serially diluted suspensions on SCOTT towel): < 1 s
de-colorization of sticker by undiluted virus (measles): less than that observed for the other viruses
effect of 1 N NaOH on acid-decolorized dye spots [11, 12]: rapid re-colorization
effect of acetic acid and Aldrich buffer pH 2.0 on dried dye spots [11, 12]: rapid de-colorization
effect of 1 N NaOH on dye decolorized by aged chicken juice ([11]; indicator spray 160 mg in 10 ml acetonitrile, hot plate surface): re-colorization of that small spot
